Experiments:
hyperammonemia rat model [1] = assay: Blood ammonia reducing experiment (injection); assay type: in vivo, SD rats; settings: for Reduction rate: blood ammonia, intraperitoneal for 4 days
Procedure: The animals used in this experiment were 50 healthy male SD rats weighing 250-300 g. They were randomly divided into 5 groups, that is, normal control group, experimental control group (acetamide group), sodium glutamate/acetamide group, Cryptotanshinone/acetamide group and tanshinone IIA/acetamide group. The rats in all those groups except the normal control group were injected intraperitoneally with saline, sodium glutamate injection (with a dose of 410 mg/kg), saline solution of Cryptotanshinone (containing small amount of surface active agent, with a dose of 10 mg/kg), saline solution of tanshinone IIA (containing small amount of surface active agent, with a dose of 10 mg/kg) respectively. 45 min after the injection, the rats in all those groups except normal control group were injected intraperitoneally with 5.5 mmol/kg acetamide. Above injections continued for 4 days. In the 4th day, 30 min after the acetamide injection, blood samples of the rats in each group were collected by eyeball removing method immediately, and processed with the anticoagulant EDTA-Na, then the blood ammonia concentration was determined using conventional method.
(§1) The dose of sodium glutamate in this example and following examples was settled with the reference of its actual clinical dose. The method for determining the blood ammonia concentration in this example and following examples was enzyme-UV method, the instrument used was HITACHI-7170 automatic analyzer, and the kit used was AMMONIA kit. Calculation formula of decrease ratio in Table 1 and following tables was: Decrease rate=[1−(concentration of treating group−concentration of normal control group)/(concentration of experimental control group−concentration of normal control group)]×100%.
Using the same experiment method, 90 min after the acetamide injection at the 4th day, blood samples of the rats in each group were collected by eyeball removing method immediately. The blood ammonia concentration was determined.

hyperammonemia rat model [2] = assay: Blood ammonia reducing experiment (oral); assay type: in vivo, SD rats
[3] = rats
healthy male mice [4] = assay: Acute toxicity test in mouse; assay type: in vivo; settings: intragastric
Text: The drug was administrated intragastrically.

AD rat model = assay: Impaired neuro-behavioral symptoms relieving experiment, Morris water labyrinth; assay type: in vivo, SD rats; design: key: —: −Normal; +Dysmnesia (Number of + indicates the extent of memory impairment, and +++++ represents the most severe case.); +++++ represents the most severe case; settings: oral 200 mg/kg/day, D-galactose/acetamide rats
Text: Experimental animals were 40 healthy male SD rats, weight between 250-300 g. They were randomly divided into 4 groups, i.e. normal control group, model control group A (D-galactose/quinolinic acid group), model control group B (D-galactose/acetamide group), and Cryptotanshinone group (D-galactose/acetamide/Cryptotanshinone group). Morris water labyrinth method was used to evaluate the neuro-behavioral symptoms of rats model caused by subacute senium and chemical damage by D-galactose.
Normal control group: routine breeding.
Model control group A (D-galactose/quinolinic acid group): D-galactose was injected subcutaneously (50 mg/kg/day, for 6 weeks) to cause subacute senium in rats. Quinolinic acid (1 μL, containing quinolinic acid 75 nmol) was injected into the rats' bilateral hippocampal gyrus to evidently decrease rats' labyrinth learning and memorizing ability, which served as animal model similar to AD.
Model control group B (D-galactose/acetamide group): D-galactose was injected subcutaneously (50 mg/kg/day, for 6 weeks) to cause subacute senium in rats; acetamide (10 mmol/kg/day) was injected intraperitoneally for 7 continuous days. […] The treated rats were served as animal model similar to AD.
Cryptotanshinone group (D-galactose/acetamide/Cryptotanshinone group):
Simultaneously with subcutaneous injection of D-galactose (50 mg/kg/day, for 6 weeks), Cryptotanshinone was orally administered (the dose was 200 mg/kg/day). 10 mmol/kg acetamide was intraperitoneally injected for 7 continuous days (Cryptotanshinone was orally given at the same time).

[5] = Brain tissue entrance experiment; assay type: in vivo, rats; settings: intragastric 300 mg/kg/day for 5 days; brain 1 hour after administration on 5th day; chloroform extract
Procedure: Experimental animals were healthy male rats. The drug was continually administrated intragastrically at a dose of 300 mg/kg/day, continued for 5 days. 1 hour after administration on the 5th day, rats were put to death and brains were taken out. The brain tissues were homogenized and then extracted with chloroform.

healthy male mice [6] = assay: 30 days toxicity test in mouse; assay type: in vivo; settings: intragastric 200 mg/kg day for 30 days
Procedure: The drug was continually administrated intragastrically for 30 days with dose of 200 mg/kg day.

[7] = system: high-level brain ammonia animal model; assay: Brain tissue ammonia concentration reducing experiment (injection); assay type: in vivo, SD rats; settings: for Reduction rate: brain tissue ammonia, intraperitoneal for 4 days, 60 min after acetamide on 4th day; for Brain tissue ammonia concentration: intraperitoneal for 4 days (sodium glutamate 410 mg/kg, Cryptotanshinone 30 mg/kg), brain 60 min after acetamide on 4th day
Text: as §1
(§2) Experimental animals were 50 healthy male SD rats, weight between 250-300 g. They were randomly divided into 4 groups, i.e. normal control group, experimental control group ([…]), sodium glutamate/acetamide group, and Cryptotanshinone/acetamide group. The rats in all those groups except the normal control group were injected intraperitoneally with saline, sodium glutamate solution (with a dose of 410 mg/kg), and saline solution of Cryptotanshinone (containing small amount of surface active agent, with a dose of 30 mg/kg) respectively. 45 min after the injection, the rats in all those groups except the normal control group were injected intraperitoneally with 5.5 mmol/kg acetamide. Above injections continued for 4 days. In the 4th day, 60 min after the acetamide injection, the rats of each group were put to death, and brain tissue samples were taken out immediately and homogenized under low temperature condition, then the ammonia concentration in brain tissue was determined by using glutamate dehydrogenase assay.

[8] = system: high-level brain ammonia animal model; assay: Brain tissue ammonia concentration reducing experiment (oral); assay type: in vivo, SD rats; settings: for Reduction rate: brain tissue ammonia, oral for 4 days, 60 min after acetamide on 4th day; for Brain tissue ammonia concentration: oral for 4 days (sodium glutamate 200 mg/kg, Cryptotanshinone 150 mg/kg), brain 60 min after acetamide on 4th day
Text: as §1
as §2, with “The rats in all those groups except the normal control group were injected intraperitoneally with saline, sodium glutamate solution (with a dose of 410 mg/kg), and saline solution of Cryptotanshinone (containing small amount of surface active agent, with a dose of 30 mg/kg) respectively.” left out
The same experiment condition in example 6 was adopted except Sodium Glutamate oral taking (the dose was 200 mg/kg) instead of Sodium Glutamate injection and Cryptotanshinone oral taking (dose 150 mg/kg) instead of Cryptotanshinone injection. In the 4th day, 60 min after the acetamide injection, the rats of each group were put to death and brain tissue samples were taken out immediately. Then, the ammonia concentration in brain tissue was determined.

Compound Cc1cccc2c3c(ccc12)C1=C(C(=O)C3=O)[C@@H](C)CO1 [Dihydrotanshinone I] has a Reduction rate (hyperammonemia rat model [1]; 90 min after acetamide on 4th day) of 100%, a Blood ammonia concentration (hyperammonemia rat model [1]; intraperitoneal for 4 days (sodium glutamate 410 mg/kg, others 10 mg/kg), blood 90 min after acetamide on 4th day) of 110 µmol/L and a Reduction rate (hyperammonemia rat model [2]; blood ammonia, oral for 4 days, 90 min after acetamide on 4th day) of 97%. It also gave a Blood ammonia concentration (hyperammonemia rat model [2]; oral for 4 days (sodium glutamate 200 mg/kg, others 100 mg/kg), blood 90 min after acetamide on 4th day) of 120 µmol/L.
With C[C@H]1COC2=C1C(=O)C(=O)c1c2ccc2c1CCCC2(C)C [Cryptotanshinone] the “Content of Cryptotanshinone in tissues” value [3] was “highest in blood and brain tissue”, the LD50 (healthy male mice [4]) was > 30 g 1 kg and the “Toxic symptom or death” value (healthy male mice [4]; dose added to 1.5 g/kg) was “no toxic symptom or death”. For the same compound, the “AD Symptom-Dysmnesia Synthetic Index” value (AD rat model; Day 1 after chemical damage) was “—”, the “AD Symptom-Dysmnesia Synthetic Index” value (AD rat model; Day 2 after chemical damage) was “—” and the “AD Symptom-Dysmnesia Synthetic Index” value (AD rat model; Day 3 after chemical damage) was “—”. The “AD Symptom-Dysmnesia Synthetic Index” value (AD rat model; Day 4 after chemical damage) was “—”, the “AD Symptom-Dysmnesia Synthetic Index” value (AD rat model; Day 5 after chemical damage) was “+” and the “AD Symptom-Dysmnesia Synthetic Index” value (AD rat model; Day 6 after chemical damage) was “+”. For the same compound, the “AD Symptom-Dysmnesia Synthetic Index” value (AD rat model; Day 7 after chemical damage) was “+”, the Reduction rate (hyperammonemia rat model [1]; 30 min after acetamide on 4th day) was 60% and the “Cryptotanshinone detected in brain tissue with HPLC” value [5] was “Significant amount”. For the same compound, the “Change in growth and development, hematopoiesis function, and biochemical index” value (healthy male mice [6]) was “no apparent abnormal change or toxic reaction”, the “Death of the tested mice” value (healthy male mice [6]) was “no death” and the “Pathology of major organs (anatomical and tissue microscopy inspection)” value (healthy male mice [6]) was “No pathology change”. For the same compound, the Reduction rate [7] was 60%, the “Brain tissue ammonia concentration” value [7] was 280 nmol/g and the Reduction rate [8] was 45%. The “Brain tissue ammonia concentration” value [8] was 310 nmol/g.
For N[C@@H](CCC(=O)[O-])C(=O)[O-].[Na+].[Na+] [Sodium Glutamate, reference compound], the Reduction rate [7] was 28%, the “Brain tissue ammonia concentration” value [7] was 350 nmol/g and the Reduction rate [8] was 19%. For the same compound, the “Brain tissue ammonia concentration” value [8] was 370 nmol/g.
